Key:
Assay in all cases: relative viability (nuclei count vs DMSO), 5 days (fraction); higher = more cells survive
Adavosertib + Lapatinib = compound: C=CCn1c(=O)c2cnc(Nc3ccc(N4CCN(C)CC4)cc3)nc2n1-c1cccc(C(C)(C)O)n1 [Adavosertib] + CS(=O)(=O)CCNCc1ccc(-c2ccc3ncnc(Nc4ccc(OCc5cccc(F)c5)c(Cl)c4)c3c2)o1 [Lapatinib] (partner 2 µM)
How it was run: (§1)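 Dosing by pin tool came one day after lung cancer cell lines were seeded in 1536-well plates, using either one drug or a fixed anchor-drug dose plus five library-drug doses (not always all listed) in √10 steps. After 5 days, nuclei were counted on 4× images. Relative viability is treated-well nuclei count divided by vehicle-well nuclei count, and values are medians of duplicate plates.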

Adavosertib + Pictilisib = compound: C=CCn1c(=O)c2cnc(Nc3ccc(N4CCN(C)CC4)cc3)nc2n1-c1cccc(C(C)(C)O)n1 [Adavosertib] + CS(=O)(=O)N1CCN(Cc2cc3nc(-c4cccc5[nH]ncc45)nc(N4CCOCC4)c3s2)CC1 [Pictilisib] (partner 1 µM)
How it was run: as §1

Nelarabine + Lapatinib = compound: COc1nc(N)nc2c1ncn2[C@@H]1O[C@H](CO)[C@@H](O)[C@@H]1O [Nelarabine] + CS(=O)(=O)CCNCc1ccc(-c2ccc3ncnc(Nc4ccc(OCc5cccc(F)c5)c(Cl)c4)c3c2)o1 [Lapatinib] (partner 2 µM)
How it was run: as §1

Nelarabine + Alpelisib = compound: COc1nc(N)nc2c1ncn2[C@@H]1O[C@H](CO)[C@@H](O)[C@@H]1O [Nelarabine] + Cc1nc(NC(=O)N2CCC[C@H]2C(N)=O)sc1-c1ccnc(C(C)(C)C(F)(F)F)c1 [Alpelisib] (partner 2 µM)
How it was run: as §1

NCI-H1993
relative viability (Adavosertib + Lapatinib; first compound 0.01 µM): 0.798
relative viability (Adavosertib + Lapatinib; first compound 0.03162 µM): 0.865
relative viability (Adavosertib + Lapatinib; first compound 0.1 µM): 0.894
relative viability (Adavosertib + Lapatinib; first compound 0.3162 µM): 0.8
relative viability (Adavosertib + Pictilisib; first compound 0.01 µM): 0.858
relative viability (Adavosertib + Pictilisib; first compound 0.03162 µM): 0.818
relative viability (Adavosertib + Pictilisib; first compound 0.1 µM): 0.932
relative viability (Adavosertib + Pictilisib; first compound 0.3162 µM): 0.719
relative viability (Nelarabine + Lapatinib; first compound 0.01 µM): 0.836
relative viability (Nelarabine + Lapatinib; first compound 0.03162 µM): 0.774
relative viability (Nelarabine + Lapatinib; first compound 0.1 µM): 0.81
relative viability (Nelarabine + Lapatinib; first compound 0.3162 µM): 0.67
relative viability (Nelarabine + Lapatinib; first compound 1 µM): 0.785
relative viability (Nelarabine + Alpelisib; first compound 0.01 µM): 0.704
relative viability (Nelarabine + Alpelisib; first compound 0.03162 µM): 0.736
relative viability (Nelarabine + Alpelisib; first compound 0.1 µM): 0.756
relative viability (Nelarabine + Alpelisib; first compound 0.3162 µM): 0.712
relative viability (Nelarabine + Alpelisib; first compound 1 µM): 0.689
